ChEMBL document CHEMBL1781984 (J Nat Prod, 2011)

Assays:
KM-20L2 = experiment: Anticancer activity against human KM20L2 cells; format: functional
BXPC-3 = experiment: Anticancer activity against human BxPC3 cells; format: functional
MCF7 = experiment: Anticancer activity against human MCF7 cells; format: functional
DU-145 = experiment: Anticancer activity against human DU145 cells; format: functional
SF-268 = experiment: Anticancer activity against human SF268 cells; format: functional
NCI-H460 = experiment: Anticancer activity against human NCI-H460 cells; format: functional
[1] = Aqueous solubility of the compound in distilled water at 23 degC; format: physicochemical
P388 = experiment: Anticancer activity against mouse P388 cells; format: functional

SMILES	GI50 (KM-20L2) [nM]	GI50 (BXPC-3) [nM]	GI50 (MCF7) [nM]	GI50 (DU-145) [nM]	GI50 (SF-268) [nM]	GI50 (NCI-H460) [nM]	solubility [1] [mg/mL]	GI50 (P388) [nM]
CC[C@H](C)[C@@H]([C@@H](CC(=O)N1CCC[C@H]1[C@H](OC)[C@@H](C)C(=O)Nc1ccc2ccccc2n1)OC)N(C)C(=O)[C@@H](NC(=O)[C@H](C(C)C)N(C)C)C(C)C	10.6	40.1	6.35	31.8	40.1	22.1		
CC[C@H](C)[C@@H]([C@@H](CC(=O)N1CCC[C@H]1[C@H](OC)[C@@H](C)C(=O)Nc1ccc2ncccc2c1)OC)N(C)C(=O)[C@@H](NC(=O)[C@H](C(C)C)N(C)C)C(C)C	0.35	0.43	0.19	0.41	0.22	0.5		
C1COCCN1.CC[C@H](C)[C@@H]([C@@H](CC(=O)N1CCC[C@H]1[C@H](OC)[C@@H](C)C(=O)NCCc1ccc(OP(=O)(O)O)cc1)OC)N(C)C(=O)[C@@H](NC(=O)[C@H](C(C)C)N(C)C)C(C)C [MORPHOLINE AURISTATIN TP]							> 72	
CC[C@H](C)[C@@H]([C@@H](CC(=O)N1CCC[C@H]1[C@H](OC)[C@@H](C)C(=O)NCCc1ccc(OP(=O)(O)O)cc1)OC)N(C)C(=O)[C@@H](NC(=O)[C@H](C(C)C)N(C)C)C(C)C [POTASSIUM AURISTATIN TP]								8.7
C=C[C@H]1CN2CCC1C[C@H]2[C@H](O)c1ccnc2ccc(OC)cc12.CC[C@H](C)[C@@H]([C@@H](CC(=O)N1CCC[C@H]1[C@H](OC)[C@@H](C)C(=O)NCCc1ccc(OP(=O)(O)O)cc1)OC)N(C)C(=O)[C@@H](NC(=O)[C@H](C(C)C)N(C)C)C(C)C [Quinine Auristatin TP]							< 5	
CC[C@H](C)[C@@H]([C@@H](CC(=O)N1CCC[C@H]1[C@H](OC)[C@@H](C)C(=O)NCCc1ccc(OP(=O)(O)O)cc1)OC)N(C)C(=O)[C@@H](NC(=O)[C@H](C(C)C)N(C)C)C(C)C [SODIUM AURISTATIN TP]	0.72	54.6	0.81	0.64	1.48	1.05		< 1.2
